Five compounds from ChEMBL document CHEMBL1158699, “Bioactive benzophenones from Garcinia xanthochymus fruits” (J Nat Prod, 2005) can be followed below.

The structures appear in SMILES notation. Activity calls are given as the source filed them. The calls are words filed in the database; no cut-off is given here.

The subject of one test is SW480. Kind of test: Cytotoxicity against human SW480 cells after 72 hrs by MTT assay. It is filed as functional, cell-based. As to conditions: SW480, 72 h. Background: Formazan colour is commonly taken as a measure of viable cells.
Test [1] relates to Radical scavenging activity. Briefly: Antioxidant activity assessed as DPPH radical scavenging activity. In kind it is functional. In general terms: Loss of DPPH colour is used to gauge radical scavenging.

For orientation: IC50 means the concentration needed to halve the response being measured. On to `O=c1c(-c2c(O)cc(O)c3c(=O)cc(-c4ccc(O)cc4)oc23)c(-c2ccc(O)cc2)oc2cc(O)cc(O)c12`, for which the IC50 with SW480 is 185 µM; in test [1], over 400 µM.

As to `O=C1c2c(O)cc(O)cc2OC(c2ccc(O)cc2)C1c1c(O[C@@H]2O[C@H](CO)[C@@H](O)[C@H](O)[C@H]2O)cc(O)c2c(=O)cc(-c3ccc(O)c(O)c3)oc12` (mixture of isomers), the concentration for half-maximal inhibition (IC50) in the test with SW480 was over 200 µM; in test [1] it was 116 µM.

Consider `O=C1c2c(O)cc(O)cc2OC(c2ccc(O)cc2)C1c1c(O)cc(O)c2c(=O)cc(-c3ccc(O)c(O)c3)oc12` (racemic), for which the half-inhibitory concentration (IC50) stood at 89 µM in the test with SW480 and 62 µM in test [1].

As to `COc1cc2c(=O)c3c(O)cc(O)cc3oc2cc1O` [ALLOATHYRIOL], the IC50 with SW480 was determined as 117 µM. In addition, in test [1], the outcome was inactive.

With `O=c1cc(-c2ccc(O)c(-c3c(O)cc(O)c4c(=O)cc(-c5ccc(O)cc5)oc34)c2)oc2cc(O)cc(O)c12` [AMENTOFLAVONE], the values for the IC50 (in the test on SW480; in test [1]) were 111 µM and 184 µM, respectively.
